In US20070203149A1, “CCR5 ANTAGONISTS USEFUL FOR TREATING HIV” (Schering Corporation, priority 2006, published 2007):

How the values were obtained:
[1] = test system: primary R5 HIV 1 clinical isolates; assay: Inhibition of viral replication in human PBMCs infected with primary R5 HIV 1 clinical isolates; assay type: cell-based; conditions: for IC50: Human immunodeficiency virus 1, PBMC, human PBMCs infected with primary R5 HIV 1 clinical isolates, read-out: median IC50, inhibition of viral replication
Protocol: This assay uses primary peripheral blood mononuclear cells or the stable U87-CCR5 cell line to determine the effect of anti-CCR5 compounds to block infection of primary HIV-1 strains. The primary lymphocytes are purified from normal healthy donors and stimulated in vitro with PHA and IL-2 three days prior to infection. Using a 96-well plate format, cells are pretreated with drug for 1 hour at 37° C. and subsequently infected with an M-tropic HIV-1 isolates. Following infection, the cells are washed to remove residual inoculum and cultured in the presence of compound for 4 days. Culture supernatants are harvested and viral replication measured by determination of viral p24 antigen concentration.

[2] = Human rising single dose study: metabolite profiling of plasma and urine by LC-MS/MS after oral compound of formula A; assay type: in vivo
Protocol: (M5a/M5b/M5c/M5d are potential rotamers of the compound of Formula I)
In a human rising single dose study, plasma levels of the compound of formula I relative to the compound of formula A were assessed in blood samples drawn at 2, 8, and 24 hr following oral administration of the compound of formula A. An in-house metabolite profiling method using LC-MS/MS detection was employed for this assessment. Based on this qualitative assessment of the compound of formula I in human plasma, the concentrations of the compound of formula I are projected to be up to 3-fold higher than the compound of formula A in human plasma (see FIG. 5). This is considered to be a surprising and unexpected result.

IC50 [1] [nM]	metabolite status in human urine ([2]; 0-24 hr urine, single oral 50 mg compound of Formula A, healthy male volunteers)	metabolite status in clinical samples ([2]; first-in-man studies after administration of compound of formula A)	plasma concentration relative to the compound of formula A ([2]; human plasma, samples at 2, 8 and 24 hr after oral compound of formula A, projected from qualitative assessment)	metabolite status in human plasma ([2]; plasma 2 hr, single oral 50 mg compound of Formula A, healthy male volunteers)	Compound	susceptibility to further metabolism ([2]; stated as consequence of being a major metabolite)	in vitro potency relative to the compound of formula A ([1]; human PBMCs, primary R5 HIV 1 isolates, ratio of median IC50 values)
7.5	–	–	–	–	COC[C@@H](c1ccc(C(F)(F)F)cc1)N1CCN(C2(C)CCN(C(=O)c3c(C)ncnc3C)CC2)C[C@@H]1C [SCH-417690, reference compound]	–	–
1	–	–	–	–	Cc1ncnc(C)c1C(=O)N1CCC(C)(N2CCN([C@@H](c3cccc(F)c3)C3CCN(S(=O)(=O)C4CC4)CC3)[C@@H](C)C2)CC1 [compound of formula A, reference compound]	–	–
8	significant metabolite	major metabolite	up to 3 fold	significant metabolite	Cc1nc[n+]([O-])c(C)c1C(=O)N1CCC(C)(N2CCN([C@@H](c3cccc(F)c3)C3CCN(S(=O)(=O)C4CC4)CC3)[C@@H](C)C2)CC1 [compound of formula I]	less susceptible to further rapid metabolism	approximately ⅛
